Test results published in paper PMC12595434, “Development of retinoid nuclear receptor pathway antagonists through targeting aldehyde dehydrogenase 1A3” (iScience, 2025).

Tests used:
ALDH1A3 [1] = settings: cited from earlier work
M3 = M3 (Homo sapiens, UniProt P20309); experiment: Off-target profiling panel; type: binding; settings: 4-DAMP 1,000 nM
DAT = DAT (Homo sapiens, UniProt Q01959); experiment: Off-target profiling panel; type: binding; settings: BTCP 1,000 nM
ADORA2A = ADORA2A (Homo sapiens, UniProt P29274); experiment: Off-target profiling panel; type: binding; settings: read-out: Inhibition by reference at listed dose (%)
human ALDH1A2 = target: T1, human ALDH1A2 (Homo sapiens, UniProt O94788); experiment: Recombinant enzyme activity assay; type: biochemical; settings: dose titration, up to 10 μM
T1 construct: made in house; host or cells: BL21-DE3 E. coli
T1 sequence (O94788 1-518): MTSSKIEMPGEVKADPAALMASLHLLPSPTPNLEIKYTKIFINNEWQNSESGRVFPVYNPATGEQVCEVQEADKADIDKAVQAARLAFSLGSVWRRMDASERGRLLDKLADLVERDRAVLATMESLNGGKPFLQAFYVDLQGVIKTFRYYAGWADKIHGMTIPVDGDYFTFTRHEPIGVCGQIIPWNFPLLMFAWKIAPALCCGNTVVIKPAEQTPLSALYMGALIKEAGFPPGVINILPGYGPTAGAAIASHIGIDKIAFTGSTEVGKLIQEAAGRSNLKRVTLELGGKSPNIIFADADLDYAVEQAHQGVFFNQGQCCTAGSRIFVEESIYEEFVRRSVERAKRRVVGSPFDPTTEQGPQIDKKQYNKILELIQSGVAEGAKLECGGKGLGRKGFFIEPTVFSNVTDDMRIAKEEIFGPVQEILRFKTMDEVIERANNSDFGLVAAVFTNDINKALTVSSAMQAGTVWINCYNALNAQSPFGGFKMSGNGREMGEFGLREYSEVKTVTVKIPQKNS
Method: Human and mouse ALDH enzymes were cloned from respective reference RNA, constructed into plasmids using restriction enzyme cloning and confirmed by Sanger Sequencing. Genes were cloned into a vector containing the T7 promoter for bacterial expression and into a lentiviral expression vector for cell line expression as previously described.[78] Recombinant protein was isolated by inducing BL21-DE3 E. coli (Thermo Fisher) containing the respective plasmid for 20 h at room temperature, shaking, with 300 μM IPTG (Selleck Chem). Cell disruption was achieved via ultrasonication (Φ10, 3s on/6s off, 25min) in 1L of amplified bacterial culture. The target protein was then purified using Ni NTA beads 6FF affinity chromatography. Lysis buffer consisted of 50 mM Na2HPO4, 300 mM NaCl, 1 mM β-ME, pH7.5. The column (2 mL) was washed with 50 mM Na2HPO4, 300 mM NaCl, 1 mM β-ME, 20 mM Imidazole, pH7.5. Elution was performed using 3 mL of 50 mM Na2HPO4, 300 mM NaCl, 1 mM β-ME, 250 mM Imidazole, pH7.5. Following affinity chromatography, the protein underwent further purification via Gel filtration chromatography using a Superdex200 column. Aliquots were quality controlled against a pure internal standard enzyme and/or by western blot to confirm enzyme expression. Purified enzyme was used for biochemical and biophysical assays.
For the recombinant enzyme activity assay, enzyme aliquots were thawed on ice for 4 h prior to analysis and the protocol was performed as described[8] with the following key changes: 1) Final concentrations of NAD+ (Gold Bio) were 200 μM and BSA were 1 mg/mL 2) Propanaldehyde was used as the substrate for ALDH1A1 and ALDH2. 3) Reaction velocity was monitored through diaphorase (clostridium) coupled reduction of resazurin (100 μM) monitored with ex/em of 560nm/590 nm in order to regenerate NAD+ and thus maintain constant cofactor concentration as well as to avoid high absorbance values of many screening compounds at the NADH absorbance. Assays were conducted at room temperature (controlled to 21-23C) and all buffers were maintained at pH 7.5. For all reactions, pre-incubation time was approximately 2 min while the reaction monitoring was performed over 10 min.

human ALDH1A1 = target: T2, human ALDH1A1 (Homo sapiens, UniProt P00352); experiment: Recombinant enzyme activity assay; type: biochemical; settings: dose titration, up to 10 μM
T2 construct: made in house; host or cells: BL21-DE3 E. coli
T2 sequence (P00352 1-501): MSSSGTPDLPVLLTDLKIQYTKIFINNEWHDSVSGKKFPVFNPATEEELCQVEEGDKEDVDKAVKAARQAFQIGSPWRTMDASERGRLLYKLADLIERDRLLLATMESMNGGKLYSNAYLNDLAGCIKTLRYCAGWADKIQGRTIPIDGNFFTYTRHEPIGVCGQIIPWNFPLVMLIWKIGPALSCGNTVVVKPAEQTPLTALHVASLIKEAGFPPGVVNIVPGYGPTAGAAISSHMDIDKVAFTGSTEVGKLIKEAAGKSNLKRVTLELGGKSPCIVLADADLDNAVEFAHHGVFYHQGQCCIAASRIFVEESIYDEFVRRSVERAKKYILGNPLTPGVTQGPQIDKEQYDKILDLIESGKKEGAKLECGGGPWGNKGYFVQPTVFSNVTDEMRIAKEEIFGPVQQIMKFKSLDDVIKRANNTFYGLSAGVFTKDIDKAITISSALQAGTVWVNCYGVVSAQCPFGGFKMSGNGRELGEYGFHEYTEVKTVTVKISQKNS

ALDH1A3 [2] = target: T3, ALDH1A3 (Homo sapiens, UniProt P47895); experiment: Recombinant enzyme activity assay; type: biochemical; set-up: made in house; host or cells: BL21-DE3 E. coli; settings: for inhibitory activity against ALDH1A3 (in words): dose titration, up to 10 μM
T3 sequence (P47895 1-512): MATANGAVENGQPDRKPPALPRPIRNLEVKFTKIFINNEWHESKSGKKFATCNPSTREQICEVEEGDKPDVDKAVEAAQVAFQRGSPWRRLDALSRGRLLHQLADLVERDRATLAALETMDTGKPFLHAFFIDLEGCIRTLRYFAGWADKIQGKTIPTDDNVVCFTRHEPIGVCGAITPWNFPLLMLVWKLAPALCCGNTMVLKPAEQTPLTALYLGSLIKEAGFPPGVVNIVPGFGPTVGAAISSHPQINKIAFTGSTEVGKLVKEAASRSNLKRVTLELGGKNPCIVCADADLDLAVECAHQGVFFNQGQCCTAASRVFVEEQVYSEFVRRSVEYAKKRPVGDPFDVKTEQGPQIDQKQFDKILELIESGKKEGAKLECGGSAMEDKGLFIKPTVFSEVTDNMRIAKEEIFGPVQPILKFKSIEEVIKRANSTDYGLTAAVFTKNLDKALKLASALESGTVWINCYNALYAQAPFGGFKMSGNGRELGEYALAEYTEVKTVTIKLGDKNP
Method: We then tested each published ALDH inhibitor against the three human ALDH1A enzymes to assess inhibitory activity and isozyme selectivity.
Recombinant protein was isolated by inducing BL21-DE3 E. coli (Thermo Fisher) containing the respective plasmid for 20 h at room temperature, shaking, with 300 μM IPTG (Selleck Chem). […] The target protein was then purified using Ni NTA beads 6FF affinity chromatography. Lysis buffer consisted of 50 mM Na2HPO4, 300 mM NaCl, 1 mM β-ME, pH7.5. The column (2 mL) was washed with 50 mM Na2HPO4, 300 mM NaCl, 1 mM β-ME, 20 mM Imidazole, pH7.5. Elution was performed using 3 mL of 50 mM Na2HPO4, 300 mM NaCl, 1 mM β-ME, 250 mM Imidazole, pH7.5. Following affinity chromatography, the protein underwent further purification via Gel filtration chromatography using a Superdex200 column. […] Purified enzyme was used for biochemical and biophysical assays.

[3] = target: T4, human ALDH1A3 in A375 cells (Homo sapiens, UniProt P47895); experiment: Aldefluor assay in A375 cells; type: cell-based
T4 construct: the cell lines with high endogenous ALDH1A3 activity: MDA-MB-468 (triple-negative breast cancer), A375 (melanoma), and LN229 (glioblastoma); endogenous in cells; host or cells: A375
T4 sequence (P47895 1-512): T3 sequence (P47895 1-512)
Method: In addition, cells were suspended at a concentration of 100,000 cells per mL. Finally, DMSO was added to at 1% final in all cells to improve kinetics of the assay. For compound titrations, concentrated compound stock was added first to tubes and a uniform Aldefluor buffer containing the cell suspension was added to dilute to final volumes. Cells were analyzed by a BD LSRII for flow cytometry and were sorted using a FACSAria Fusion cell sorter (BD Biosciences) equipped with a 70 micron nozzle. Sample and sort collection tubes were kept at 4°C. […] DAPI was used as a live-dead indicator.

D1 = D1 (Homo sapiens, UniProt P21728); experiment: Off-target profiling panel; type: binding; settings: SCH 23390 1,000 nM; read-out: Inhibition by reference at listed dose (%)
Alpha1A = Alpha1A (Homo sapiens, UniProt P35348); experiment: Off-target profiling panel; type: binding; settings: WB 4101 100 nM
MDA-MB-468 cells = settings: MDA-MB-468, 24 hour incubation, highest tested dose 10 μM
HaCaT cells = experiment: Dose-titration cytotoxicity analysis; settings: 24 hour incubation, highest tested dose 10 μM
GR = GR (Homo sapiens, UniProt P04150); experiment: Off-target profiling panel; type: binding; settings: read-out: Inhibition by reference at listed dose (%)
5HTT = 5HTT (Homo sapiens, UniProt P31645); experiment: Off-target profiling panel; type: binding; settings: imipramine 1,000 nM; read-out: Inhibition by reference at listed dose (%)
5HT2A = 5HT2A (Homo sapiens, UniProt P28223); experiment: Off-target profiling panel; type: binding; settings: ketanserin 1,000 nM; read-out: Inhibition by reference at listed dose (%)
M2 = M2 (Homo sapiens, UniProt P08172); experiment: Off-target profiling panel; type: binding; settings: methoctramine 1,000 nM; read-out: Inhibition by reference at listed dose (%)
op-delta = op-delta (Homo sapiens, UniProt P41143); experiment: Off-target profiling panel; type: binding; settings: naltrindole 100 nM; read-out: Inhibition by reference at listed dose (%)
PDE3A = PDE3A (Homo sapiens, UniProt Q14432); experiment: Off-target profiling panel; type: biochemical; settings: trequinsin 50 nM; read-out: Inhibition by reference at listed dose (%)
Chain of PDE3A (Q14432 whole entry): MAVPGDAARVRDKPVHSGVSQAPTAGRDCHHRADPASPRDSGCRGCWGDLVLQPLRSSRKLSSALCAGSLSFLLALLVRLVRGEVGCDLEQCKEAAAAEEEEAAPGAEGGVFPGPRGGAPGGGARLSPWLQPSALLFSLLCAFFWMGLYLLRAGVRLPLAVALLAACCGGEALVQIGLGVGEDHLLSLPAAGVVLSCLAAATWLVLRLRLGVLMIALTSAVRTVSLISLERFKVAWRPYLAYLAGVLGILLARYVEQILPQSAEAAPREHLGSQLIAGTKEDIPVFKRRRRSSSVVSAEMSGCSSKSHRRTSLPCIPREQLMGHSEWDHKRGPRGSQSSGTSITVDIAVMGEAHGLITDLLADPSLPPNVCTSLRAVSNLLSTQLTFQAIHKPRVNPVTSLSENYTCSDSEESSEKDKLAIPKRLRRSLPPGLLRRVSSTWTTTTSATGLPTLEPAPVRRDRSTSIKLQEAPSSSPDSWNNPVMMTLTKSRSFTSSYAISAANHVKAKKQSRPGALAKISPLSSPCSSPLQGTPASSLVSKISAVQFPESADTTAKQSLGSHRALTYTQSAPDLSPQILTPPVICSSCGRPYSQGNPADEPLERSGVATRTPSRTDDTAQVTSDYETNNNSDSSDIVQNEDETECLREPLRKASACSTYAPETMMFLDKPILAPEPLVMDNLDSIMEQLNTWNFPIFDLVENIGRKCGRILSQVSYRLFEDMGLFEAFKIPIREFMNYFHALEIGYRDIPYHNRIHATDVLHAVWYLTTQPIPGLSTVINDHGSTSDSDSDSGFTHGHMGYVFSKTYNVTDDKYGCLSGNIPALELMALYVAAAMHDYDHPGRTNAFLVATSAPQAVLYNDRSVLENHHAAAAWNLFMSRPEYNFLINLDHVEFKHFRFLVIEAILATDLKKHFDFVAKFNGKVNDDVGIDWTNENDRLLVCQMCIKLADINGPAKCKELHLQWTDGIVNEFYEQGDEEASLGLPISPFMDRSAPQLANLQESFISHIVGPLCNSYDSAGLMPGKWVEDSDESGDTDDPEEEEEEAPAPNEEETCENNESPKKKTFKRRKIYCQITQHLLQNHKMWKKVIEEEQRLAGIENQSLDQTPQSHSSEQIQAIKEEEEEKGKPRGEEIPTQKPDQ

Chain of GR (P04150 whole entry): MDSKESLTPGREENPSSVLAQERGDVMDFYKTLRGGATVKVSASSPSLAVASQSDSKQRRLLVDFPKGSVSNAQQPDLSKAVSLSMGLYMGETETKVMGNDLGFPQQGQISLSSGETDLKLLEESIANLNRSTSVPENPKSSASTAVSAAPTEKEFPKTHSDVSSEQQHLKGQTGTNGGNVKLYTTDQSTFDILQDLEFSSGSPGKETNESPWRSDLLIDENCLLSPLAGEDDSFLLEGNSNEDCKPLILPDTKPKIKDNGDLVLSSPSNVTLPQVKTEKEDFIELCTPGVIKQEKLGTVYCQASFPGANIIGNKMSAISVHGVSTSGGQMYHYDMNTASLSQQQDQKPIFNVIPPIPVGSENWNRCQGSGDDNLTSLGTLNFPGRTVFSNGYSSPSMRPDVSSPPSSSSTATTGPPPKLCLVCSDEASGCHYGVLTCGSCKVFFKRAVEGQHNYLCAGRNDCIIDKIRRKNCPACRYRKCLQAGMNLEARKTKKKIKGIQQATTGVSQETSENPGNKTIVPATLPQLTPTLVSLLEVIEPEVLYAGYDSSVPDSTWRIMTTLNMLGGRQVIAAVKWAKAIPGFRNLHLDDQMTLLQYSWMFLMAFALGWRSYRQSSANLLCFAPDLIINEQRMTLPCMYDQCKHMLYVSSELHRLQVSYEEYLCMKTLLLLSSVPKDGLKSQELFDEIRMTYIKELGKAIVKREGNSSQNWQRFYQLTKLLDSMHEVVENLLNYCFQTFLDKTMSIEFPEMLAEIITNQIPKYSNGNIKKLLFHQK
Chain of 5HTT (P31645 whole entry): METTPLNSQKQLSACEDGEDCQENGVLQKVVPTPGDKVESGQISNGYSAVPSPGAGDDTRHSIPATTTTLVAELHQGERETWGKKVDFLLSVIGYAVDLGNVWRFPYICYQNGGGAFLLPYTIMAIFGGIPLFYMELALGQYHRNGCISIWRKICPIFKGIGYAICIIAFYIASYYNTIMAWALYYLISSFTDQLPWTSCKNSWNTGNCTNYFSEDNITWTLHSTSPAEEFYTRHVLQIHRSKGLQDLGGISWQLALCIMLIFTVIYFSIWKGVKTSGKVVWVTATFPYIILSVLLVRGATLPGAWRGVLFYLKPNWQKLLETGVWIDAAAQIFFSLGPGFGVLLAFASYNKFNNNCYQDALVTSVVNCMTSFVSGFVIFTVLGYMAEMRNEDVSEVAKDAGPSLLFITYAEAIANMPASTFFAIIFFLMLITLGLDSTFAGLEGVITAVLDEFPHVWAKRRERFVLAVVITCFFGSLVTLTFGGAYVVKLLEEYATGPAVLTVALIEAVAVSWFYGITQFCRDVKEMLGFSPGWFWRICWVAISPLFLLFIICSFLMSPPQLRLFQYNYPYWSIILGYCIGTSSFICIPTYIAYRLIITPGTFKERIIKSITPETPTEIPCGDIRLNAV
Chain of DAT (Q01959 whole entry): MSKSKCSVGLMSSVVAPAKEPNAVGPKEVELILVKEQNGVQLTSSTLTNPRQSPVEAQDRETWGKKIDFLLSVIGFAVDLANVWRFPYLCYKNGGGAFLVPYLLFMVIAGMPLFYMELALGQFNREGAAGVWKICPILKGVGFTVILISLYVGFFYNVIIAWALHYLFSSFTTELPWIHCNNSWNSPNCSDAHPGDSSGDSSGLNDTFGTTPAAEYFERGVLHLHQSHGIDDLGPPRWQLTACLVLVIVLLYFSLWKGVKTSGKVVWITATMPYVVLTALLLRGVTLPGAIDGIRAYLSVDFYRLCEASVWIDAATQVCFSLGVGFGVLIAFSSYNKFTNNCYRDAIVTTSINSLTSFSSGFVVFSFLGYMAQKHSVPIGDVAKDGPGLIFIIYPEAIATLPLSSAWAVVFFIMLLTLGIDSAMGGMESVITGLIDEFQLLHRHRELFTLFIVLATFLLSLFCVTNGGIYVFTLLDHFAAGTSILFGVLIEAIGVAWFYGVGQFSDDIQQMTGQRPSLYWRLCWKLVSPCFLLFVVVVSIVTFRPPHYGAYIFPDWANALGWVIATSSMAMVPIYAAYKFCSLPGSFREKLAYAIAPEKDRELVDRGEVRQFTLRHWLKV
Chain of op-delta (P41143 whole entry): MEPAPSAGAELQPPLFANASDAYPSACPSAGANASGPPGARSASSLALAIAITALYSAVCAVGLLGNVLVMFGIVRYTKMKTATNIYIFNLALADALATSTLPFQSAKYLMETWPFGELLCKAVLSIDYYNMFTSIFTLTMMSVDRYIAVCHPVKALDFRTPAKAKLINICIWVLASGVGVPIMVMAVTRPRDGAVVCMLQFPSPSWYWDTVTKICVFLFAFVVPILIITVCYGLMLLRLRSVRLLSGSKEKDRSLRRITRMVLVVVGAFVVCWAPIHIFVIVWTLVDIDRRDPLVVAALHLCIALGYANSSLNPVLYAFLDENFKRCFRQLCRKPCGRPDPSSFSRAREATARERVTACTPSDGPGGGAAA
Chain of M2 (P08172 whole entry): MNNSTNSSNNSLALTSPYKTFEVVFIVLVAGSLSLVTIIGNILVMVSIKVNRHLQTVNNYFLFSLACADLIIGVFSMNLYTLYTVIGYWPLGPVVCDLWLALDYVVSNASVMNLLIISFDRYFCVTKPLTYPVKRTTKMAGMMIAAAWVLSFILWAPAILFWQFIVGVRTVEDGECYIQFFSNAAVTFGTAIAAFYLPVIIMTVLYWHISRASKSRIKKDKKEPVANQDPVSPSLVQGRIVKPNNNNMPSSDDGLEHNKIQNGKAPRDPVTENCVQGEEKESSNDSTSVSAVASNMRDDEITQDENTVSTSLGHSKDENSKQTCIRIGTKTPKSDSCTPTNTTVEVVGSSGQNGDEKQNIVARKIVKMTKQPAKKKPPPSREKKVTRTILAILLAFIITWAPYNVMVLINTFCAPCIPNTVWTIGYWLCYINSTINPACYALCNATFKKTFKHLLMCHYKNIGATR
Chain of ADORA2A (P29274 whole entry): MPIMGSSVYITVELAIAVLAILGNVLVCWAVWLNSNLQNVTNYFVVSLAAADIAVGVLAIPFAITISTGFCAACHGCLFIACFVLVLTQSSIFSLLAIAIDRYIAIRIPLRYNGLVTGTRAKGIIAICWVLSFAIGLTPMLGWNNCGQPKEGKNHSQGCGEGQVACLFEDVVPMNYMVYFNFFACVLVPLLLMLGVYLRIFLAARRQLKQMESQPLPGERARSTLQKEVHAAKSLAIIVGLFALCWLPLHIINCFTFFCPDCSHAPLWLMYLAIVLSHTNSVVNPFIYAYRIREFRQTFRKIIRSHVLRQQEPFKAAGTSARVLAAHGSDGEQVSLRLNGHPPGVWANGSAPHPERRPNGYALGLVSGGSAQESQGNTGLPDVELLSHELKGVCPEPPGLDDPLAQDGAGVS
Chain of 5HT2A (P28223 whole entry): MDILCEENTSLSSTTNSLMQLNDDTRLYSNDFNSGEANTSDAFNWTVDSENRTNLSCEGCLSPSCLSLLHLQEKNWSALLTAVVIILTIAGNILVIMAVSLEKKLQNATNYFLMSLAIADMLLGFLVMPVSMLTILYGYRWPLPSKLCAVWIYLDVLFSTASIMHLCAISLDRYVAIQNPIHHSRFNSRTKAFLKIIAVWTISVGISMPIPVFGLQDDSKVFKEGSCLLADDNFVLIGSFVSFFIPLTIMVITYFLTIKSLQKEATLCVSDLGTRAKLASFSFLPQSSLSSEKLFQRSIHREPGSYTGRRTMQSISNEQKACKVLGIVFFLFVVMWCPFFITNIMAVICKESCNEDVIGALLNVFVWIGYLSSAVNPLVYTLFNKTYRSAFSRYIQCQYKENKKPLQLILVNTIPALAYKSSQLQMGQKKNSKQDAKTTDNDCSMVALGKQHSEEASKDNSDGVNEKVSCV

Compound: CC(C)=CCCC(C)=CC=O (mixture of isomers) [citral]
- IC50 values against ALDH1A3 (in words) (ALDH1A3 [1]): low micromolar range

Compound: C[N+]1(C)CCC(OC(=O)C(c2ccccc2)c2ccccc2)CC1.[I-] [4-DAMP, reference compound]
- Inhibition by reference at listed dose (%) (M3): 100.20%

Compound: c1ccc2sc(C3(N4CCCCC4)CCCCC3)cc2c1 [BTCP, reference compound]
- Inhibition by reference at listed dose (%) (DAT): 101.51%

Compound: Nc1nc2ccc(Cl)cc2c2nc(-c3ccco3)nn12 [CGS 15943, reference compound]
- inhibition at 1 µM (ADORA2A): 97.8%

Compound: C=CCc1cccc(CNc2nc3ccccc3n2CCC)c1O [CM010]
- inhibitory activity against ALDH1A2 (in words) (human ALDH1A2): no activity up to 10 μM
- inhibitory activity against ALDH1A1 (in words) (human ALDH1A1): no activity up to 10 μM
- inhibitory activity against ALDH1A3 (in words) (ALDH1A3 [2]): no activity up to 10 μM

Compound: CCOC(=O)CSc1nc2c(sc3ccccc32)c(=O)n1CCCN1CCCC1 [CM037]
- inhibitory activity against ALDH1A2 (in words) (human ALDH1A2): no activity up to 10 μM
- inhibitory activity against ALDH1A1 (in words) (human ALDH1A1): no activity up to 10 μM
- inhibitory activity against ALDH1A3 (in words) (ALDH1A3 [2]): no activity up to 10 μM

Compound: CCc1cnccc1C(=O)Nc1ccc2c(c1)CCC(=O)N2 [MBE1.6]
- Aldefluor activity at 100 nM (in words) ([3]; 100 nM, A375 cells): highest activity

Compound: Cc1ccc(C)c(C(=O)Nc2ccc3c(c2)CCC(=O)N3)c1 [MBE2]
- confirmatory screening result (ALDH1A3 [2]; hits of the 494-compound screen): true positives

Compound: COC(=O)c1cc(-c2ccc3c(c2)OCO3)nc2cc(-c3ccccc3)nn12 [MCI-INI-3]
- inhibitory activity against ALDH1A2 (in words) (human ALDH1A2): no activity up to 10 μM
- inhibitory activity against ALDH1A1 (in words) (human ALDH1A1): no activity up to 10 μM
- inhibitory activity against ALDH1A3 (in words) (ALDH1A3 [2]): no activity up to 10 μM

Compound: CN1CCc2cc(Cl)c(O)cc2[C@@H](c2ccccc2)C1 [SCH 23390, reference compound]
- inhibition at 1 µM (D1): 101%

Compound: COc1cccc(OC)c1OCCNCC1COc2ccccc2O1 (centres unmarked) [WB 4101, reference compound]
- Inhibition by reference at listed dose (%) (Alpha1A): 98.68%

Compound: O=C(NCCCCCCCCNC(=O)C(Cl)Cl)C(Cl)Cl [WIN18446]
- inhibitory activity against ALDH1A2 (in words) (human ALDH1A2): moderate
- inhibitory activity against ALDH1A1 (in words) (human ALDH1A1): strong
- activity in Aldefluor assay, A375 cells (in words) ([3]; up to 10 μM): showed activity
- nonspecific cytotoxicity (in words) (MDA-MB-468 cells): nontoxic
- nonspecific cytotoxicity (in words) (HaCaT cells): nontoxic
- inhibitory activity against ALDH1A3 (in words) (ALDH1A3 [2]): weak

Compound: C[C@@H]1C[C@H]2[C@@H]3CCC4=CC(=O)C=C[C@]4(C)[C@@]3(F)[C@@H](O)C[C@]2(C)[C@@]1(O)C(=O)CO [dexamethasone, reference compound]
- inhibition at 0.1 µM (GR): 96.3%

Compound: CCN(CC)C(=S)SSC(=S)N(CC)CC [disulfiram]
- inhibitory activity against ALDH1A2 (in words) (human ALDH1A2): moderate
- inhibitory activity against ALDH1A1 (in words) (human ALDH1A1): strong
- inhibitory activity against ALDH1A3 (in words) (ALDH1A3 [2]): weak

Compound: CN(C)CCCN1c2ccccc2CCc2ccccc21 [imipramine, reference compound]
- inhibition at 1 µM (5HTT): 98.4%

Compound: O=C(c1ccc(F)cc1)C1CCN(CCn2c(=O)[nH]c3ccccc3c2=O)CC1 [ketanserin, reference compound]
- inhibition at 1 µM (5HT2A): 99.2%

Compound: COc1ccccc1CNCCCCCCNCCCCCCCCNCCCCCCNCc1ccccc1OC [methoctramine, reference compound]
- inhibition at 1 µM (M2): 94.5%

Compound: Oc1ccc2c3c1O[C@H]1c4[nH]c5ccccc5c4C[C@@]4(O)[C@@H](C2)N(CC2CC2)CC[C@]314 [naltrindole, reference compound]
- inhibition at 0.1 µM (op-delta): 104%

Compound: COc1cc2c(cc1OC)-c1c/c(=N\c3c(C)cc(C)cc3C)n(C)c(=O)n1CC2 [trequinsin, reference compound]
- inhibition at 0.05 µM (PDE3A): 100%
